Results on 24 molecules are retold here after patent US11845751B2, “Triazolotriazine derivatives as A2A receptor antagonists” (ZHEJIANG VIMGREEN PHARMACEUTICALS, LTD., priority 2018, dated 2023).

In this assay the target is T1, A2AR (hADORA2A-HEK293 cells) (Homo sapiens, UniProt P29274).
T1 construct: expressed in transfected cells; host or cells: HEK293 (hADORA2A-HEK293)
T1 sequence (P29274 whole entry): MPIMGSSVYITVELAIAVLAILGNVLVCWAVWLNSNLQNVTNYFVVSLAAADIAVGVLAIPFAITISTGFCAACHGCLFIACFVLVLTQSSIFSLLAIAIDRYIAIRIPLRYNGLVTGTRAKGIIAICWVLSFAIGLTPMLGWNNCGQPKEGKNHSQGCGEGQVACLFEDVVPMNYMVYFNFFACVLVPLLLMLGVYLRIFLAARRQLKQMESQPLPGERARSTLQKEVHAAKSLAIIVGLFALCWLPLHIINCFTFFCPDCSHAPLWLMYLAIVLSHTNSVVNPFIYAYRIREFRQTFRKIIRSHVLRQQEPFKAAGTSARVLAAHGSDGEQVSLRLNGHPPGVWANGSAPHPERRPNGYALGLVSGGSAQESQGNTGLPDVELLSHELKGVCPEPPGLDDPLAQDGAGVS
Briefly: functional cAMP production assay: NECA stimulation of cAMP production and its inhibition by A2AR antagonists. Format: cell-based. The note with it: A2AR-expressing HEK293 cells (hADORA2A-HEK293); NECA at EC80; TR-FRET cAMP readout; read-out: A2AR Potency (IC50, inhibition of NECA-stimulated cAMP production). As for the experimental part: The antagonistic activities of the triazolotriazine derivatives of the present invention were measured in a functional cAMP production assay. The assay consists of NECA stimulation of cAMP production and its inhibition by A2AR antagonists in A2AR-expressing HEK293 cells (hADORA2A-HEK293). All cells were cultured in complete medium at 37° C. in 5% CO2. The cells were detached with pancreatin and collected at 200 g for 5 min. After resuspending the cells in fresh complete medium, the cell viability is counted using the trypan blue exclusion method. […] After the cells were diluted with Hank's buffered saline solution containing HEPES (5 mM), BSA stabilizer (0.1%) and […] Rolipram (10 μM), cells were loaded into white opaque 384-well plates (˜500 cells/well, 10 μl/well) and incubated with test compound at a suitable concentration range (11 concentrations) for 20 min at room temperature. Then the A2A receptor agonist NECA (final concentration=EC80, which was determined in the same experiment slightly earlier) was added to the sample and the mixture was incubated again for 30 min at 37° C. […] The inhibition rate (%) was calculated according to the following formula. The IC50 values were calculated from concentration-inhibition (%) curves after log transformation.
A general note: Changes in cAMP serve as a functional read-out for many G protein-coupled receptors.
Broadly, the IC50 is the point on the concentration scale where inhibition reaches its midpoint. For the molecule `Nc1nc(NCCc2ccc(OCC3CCN(Cc4cccnc4)C3)cc2)nc2nc(-c3ccco3)nn12` (stereo in doubt) [Example 283, (S)-2-(Furan-2-yl)-N5-(4-((1-(pyridin-3-ylmethyl)pyrrolidin-3-yl)methoxy)phenethyl)-[1,2,4]triazolo[1,5-a][1,3,5]triazine-5,7-diamine], the IC50 came out at 0.0432 µM.
Take `CN(C)CCOc1ccc(CCNc2nc(N)n3nc(-c4ccco4)nc3n2)cc1` [Example 13, N5-(4-(2-(Dimethylamino)ethoxy)phenethyl)-2-(furan-2-yl)-[1,2,4]triazolo[1,5-α][1,3,5]-triazine-5,7-diamine]: the IC50 came to 0.018 µM.
In the case of `Nc1nc(NCCc2ccc(OCCN3CCCC3)cc2)nc2nc(-c3ccco3)nn12` [Example 16, 2-(Furan-2-yl)-N5-(4-(2-(pyrrolidin-1-yl)ethoxy)phenethyl)-[1,2,4]triazolo[1,5-α][1,3,5]-triazine-5,7-diamine] it was 0.024 µM; in that of `Nc1nc(NCCc2ccc(OCCCN3CCCC3)cc2)nc2nc(-c3ccco3)nn12` [Example 19, 2-(Furan-2-yl)-N5-(4-(3-(pyrrolidin-1-yl)propoxy)phenethyl)-[1,2,4]triazolo[1,5-α][1,3,5]-triazine-5,7-diamine], 0.029 µM.
In the case of `Nc1nc(NCCc2ccc(OCc3ccccn3)cc2)nc2nc(-c3ccco3)nn12` [Example 26, 2-(Furan-2-yl)-N5-(4-(pyridin-2-ylmethoxy)phenethyl)-[1,2,4]triazolo[1,5-α][1,3,5]triazine-5,7-diamine] it was 0.008 µM; in that of `Nc1nc(NCCc2ccc(OCc3ccncc3)cc2)nc2nc(-c3ccco3)nn12` [Example 29, 2-(Furan-2-yl)-N5-(4-(pyridin-4-ylmethoxy)phenethyl)-[1,2,4]triazolo[1,5-α][1,3,5]triazine-5,7-diamine], 0.007 µM; in that of `Nc1nc(NCCc2ccc(OCc3cccnc3)cc2)nc2nc(-c3ccco3)nn12` [Example 32, 2-(Furan-2-yl)-N5-(4-(pyridin-3-ylmethoxy)phenethyl)-[1,2,4]triazolo[1,5-α][1,3,5]triazine-5,7-diamine], 0.008 µM.
In the case of `Nc1nc(NCCc2ccc(OCCCc3ccncc3)cc2)nc2nc(-c3ccco3)nn12` [Example 36, 2-(Furan-2-yl)-N5-(4-(3-(pyridin-4-yl)propoxy)phenethyl)-[1,2,4]triazolo[1,5-α][1,3,5]-triazine-5,7-diamine] it was 0.011 µM; in that of `Nc1nc(NCCc2ccc(OCCCc3cccnc3)cc2)nc2nc(-c3ccco3)nn12` [Example 40, 2-(Furan-2-yl)-N5-(4-(3-(pyridin-3-yl)propoxy)phenethyl)-[1,2,4]triazolo[1,5-α][1,3,5]-triazine-5,7-diamine], 0.011 µM; in that of `Nc1nc(NCCc2c[nH]cn2)nc2nc(-c3ccco3)nn12` [Example 42, N5-(2-(1H-Imidazol-4-yl)ethyl)-2-(furan-2-yl)-[1,2,4]triazolo[1,5-α][1,3,5]triazine-5,7-diamine], 0.129 µM.
As for `Nc1nc(NCCc2ccncn2)nc2nc(-c3ccco3)nn12` [Example 44, 2-(Furan-2-yl)-N5-(2-(pyrimidin-4-yl)ethyl)-[1,2,4]triazolo[1,5-α][1,3,5]triazine-5,7-diamine], the IC50 turned out to be 0.0638 µM.
In the case of `Nc1nc(NCCc2ccc(OCCN3CCCCCC3)cc2)nc2nc(-c3ccco3)nn12` [Example 51, N5-(4-(2-(Azepan-1-yl)ethoxy)phenethyl)-2-(furan-2-yl)-[1,2,4]triazolo[1,5-α][1,3,5]triazine-5,7-diamine] it was 0.0254 µM; in that of `Nc1nc(NCCc2ccc(OCCCN3CCCCC3)cc2)nc2nc(-c3ccco3)nn12` [Example 54, 2-(Furan-2-yl)-N5-(4-(3-(piperidin-1-yl)propoxy)phenethyl)-[1,2,4]triazolo[1,5-α][1,3,5]-triazine-5,7-diamine], 0.0192 µM.
In the case of `COCCOc1ccc(CCNc2nc(N)n3nc(-c4ccco4)nc3n2)cc1` [Example 57, 2-(Furan-2-yl)-N5-(4-(2-methoxyethoxy)phenethyl)-[1,2,4]triazolo[1,5-α][1,3,5]triazine-5,7-diamine] it was 0.007 µM; in that of `COCCOCCOc1ccc(CCNc2nc(N)n3nc(-c4ccco4)nc3n2)cc1` [Example 60, 2-(Furan-2-yl)-N5-(4-(2-(2-methoxyethoxy)ethoxy)phenethyl)-[1,2,4]triazolo[1,5-α][1,3,5]triazine-5,7-diamine], 0.01 µM.
For `COCCOCCOCCOc1ccc(CCNc2nc(N)n3nc(-c4ccco4)nc3n2)cc1` [Example 65, 2-(Furan-2-yl)-N5-(4-(2-(2-(2-methoxyethoxy)ethoxy)ethoxy)phenethyl)-[1,2,4]triazolo[1,5-α][1,3,5]triazine-5,7-diamine], the IC50 amounted to 0.0215 µM.
With `COCCOCCOCCOCCOc1ccc(CCNc2nc(N)n3nc(-c4ccco4)nc3n2)cc1` [Example 70, N5-(4-(2,5,8,11-Tetraoxatridecan-13-yloxy)phenethyl)-2-(furan-2-yl)-[1,2,4]triazolo[1,5-α][1,3,5]triazine-5,7-diamine], the IC50 was found to be 0.019 µM.
As for `COCCOCCOCCOCCOCCOc1ccc(CCNc2nc(N)n3nc(-c4ccco4)nc3n2)cc1` [Example 74, N5-(4-(2,5,8,11,14-Pentaoxahexadecan-16-yloxy)phenethyl)-2-(furan-2-yl)-[1,2,4]triazolo[1,5-α][1,3,5]triazine-5,7-diamine], the figure is 0.0323 µM; as for `COCCOCCOCCOCCOCCOCCOc1ccc(CCNc2nc(N)n3nc(-c4ccco4)nc3n2)cc1` [Example 78, N5-(4-(2,5,8,11,14,17-Hexaoxanonadecan-19-yloxy)phenethyl)-2-(furan-2-yl)-[1,2,4]triazolo[1,5-α][1,3,5]triazine-5,7-diamine], 0.0313 µM; as for `Nc1nc(NCCc2ccc(OCCN3CCOCC3)cc2)nc2nc(-c3ccco3)nn12` [Example 82, 2-(Furan-2-yl)-N5-(4-(2-morpholinoethoxy)phenethyl)-[1,2,4]triazolo[1,5-α][1,3,5]triazine-5,7-diamine], 0.009 µM.
In the case of `Nc1nc(NCCc2ccc(OCCCN3CCOCC3)cc2)nc2nc(-c3ccco3)nn12` [Example 86, 2-(Furan-2-yl)-N5-(4-(3-morpholinopropoxy)phenethyl)-[1,2,4]triazolo[1,5-α][1,3,5]triazine-5,7-diamine] it was 0.0143 µM; in that of `Nc1nc(NCCc2ccc(OCCc3ccccn3)cc2)nc2nc(-c3ccco3)nn12` [Example 90, 2-(Furan-2-yl)-N5-(4-(2-(pyridin-2-yl)ethoxy)phenethyl)-[1,2,4]triazolo[1,5-α][1,3,5]triazine-5,7-diamine], 0.0109 µM; in that of `Nc1nc(NCCc2ccc(OCCOCCN3CCOCC3)cc2)nc2nc(-c3ccco3)nn12` [Example 94, 2-(Furan-2-yl)-N5-(4-(2-(2-morpholinoethoxy)ethoxy)phenethyl)-[1,2,4]triazolo[1,5-α][1,3,5]triazine-5,7-diamine], 0.016 µM.
For the molecule `Nc1nc(NCCc2ccc(OCCN3CCC3)cc2)nc2nc(-c3ccco3)nn12` [Example 98, N5-(4-(2-(Azetidin-1-yl)ethoxy)phenethyl)-2-(furan-2-yl)-[1,2,4]triazolo[1,5-α][1,3,5]triazine-5,7-diamine], the IC50 was 0.0485 µM.
